Patent EP4818189A1, “NITROGEN-CONTAINING HETEROCYCLIC COMPOUND, AND PREPARATION METHOD AND USE THEREFOR” (Chengdu Di'ao Pharmaceutical Group Co., Ltd., priority 2023, dated 2025)
Where a SMILES comes first, the peptide text is derived from it. [ ]: non-standard residue; d: D form. The star is where a group is joined. pGlu = O=C1CC[C@@H](C(=O)O)N1; Aze = O=C(O)[C@@H]1CCN1; dAze = O=C(O)[C@H]1CCN1; Bz = O=C(c1ccccc1)*

What was measured:
[1] = Plasma stability determination; format: in vitro ADME; settings: mouse
Procedure: Mouse plasma (purchased from IPHASE, Batch No. 23B007) was thawed in a 37°C water bath, centrifuged to remove an upper clot, and the pH value was recorded as 7-8. An appropriate volume of stock solution of test compound in acetonitrile (at a concentration of 10 mM) was diluted with acetonitrile to 1 mM, so as to serve as a test drug solution. An appropriate volume of test drug solution was added to a corresponding volume of plasma and mixed uniformly, such that the concentration of the test compound in the incubation system was 5 µM, and the content of the organic solvent acetonitrile was 0.5%. 50 µL of mixed plasma was transferred into a 96-well plate (N=2), incubated at 37°C in a water bath for a designated time, and then added with 300 µL of internal standard-containing methanol solution to terminate the reaction. The reaction mixture was vortexed and centrifuged, and the supernatant was subjected to LC-MS/MS analysis. Propantheline and ZZL-7 were used as positive controls, and processed and tested under the same conditions as the test compound. A curve was plotted with the remaining percentage of the compound against incubation time to obtain a k value, and the half-life of each compound was calculated.

[2] = Mouse pharmacokinetic detection; format: in vivo; settings: CD1 mice
Procedure: The detection was carried out in 6-8-week-old CD1 mice (purchased from: Speifu (Beijing) Biotechnology Co., Ltd.). […] The concentration of the compound in a plasma sample was analyzed by LC-MS/MS. Pharmacokinetic calculation was carried out by using WinNonlin (Phoenix™, Version 8.3) or other similar software. The following pharmacokinetic parameters were calculated based on plasma concentration and time data: Oral administration: AUClast, bioavailability (F). Statistical calculation was carried out on the above parameter data. Table 3 Pharmacokinetic data of some compounds administered orally in mice

[3] = Permeability detection in MDR1-MDCK II cell monolayer; format: in vitro ADME; settings: dog, pH 7.4, MDR1-MDCK II cells, 2 µM, 2.5 hours; for Papp A→B at 2.5 h, 2 µM: apical to basolateral; for Papp B→A at 2.5 h, 2 µM: basolateral to apical
Procedure: (§1) MDR1-MDCK II cells (imported from the Netherlands Cancer Institute) were seeded in a 96-well cell plate at a density of 3.33×10^5 cells/mL, and cultured in a carbon dioxide incubator for 4-7 days to form a cell monolayer. A Hank's balanced salt solution (HBSS, pH 7.40 ± 0.05) containing 10.0 mM 4-(2-hydroxyethyl)-1-piperazineethanesulfonic acid (HEPES) was used as a transport buffer. A DMSO stock solution of compound was diluted to 2 µM (DMSO < 1.0%) with the transport buffer, and added to the basolateral (B) side and apical (A) side respectively (N=2). The bidirectional (A-B and B-A) incubation concentration of Digoxin, a P-gp substrate, was 10 µM, and the unidirectional (A-B) incubateion concentrations of Nadolol, a low-permeability control, and Metoprolol, a high-permeability control, were 2 µM. The cell plate was incubated in a 5% CO2 cell incubator at 37°C and saturated humidity for 2.5 hours, then final samples from a receiver side and a donor side were collected, added with the transport buffer and a precipitant at an appropriate ratio, and analyzed by LC-MS/MS, and an apparent permeability coefficient, an efflux ratio and a solution recovery were calculated.
(§2) After the transport experiment was completed, an integrity of the MDR1-MDCK II cell layer was detected by a lucifer yellow detection experiment. Residual solution in apical and basolateral wells was removed, and 75 µL of transport buffer containing 100 µM lucifer yellow was added to the apical wells and 250 µL of transport buffer was added to the basolateral wells respectively. The cell plate was incubated in a 5% CO2 cell incubator at 37 °C and saturated humidity for 30 minutes, then 20 µL of sample was taken from the apical side and mixed with 60 µL of transport buffer and 80 µL of sample was taken from the basolateral side. A relative fluorescence intensity was detected by a microplate reader at excitation/emission wavelengths of 425/528 nm, and the permeability of Lucifer Yellow was calculated.
(§3) The apparent permeability coefficient (Papp), efflux ratio (ER) and %solution recovery were respectively calculated by following formulas: Papp = (VR)/(Area × Time) × ([drug]receiver)/([drug]initial,donor) = (VR)/(Area × Time) × (CR)/(C0) [formula] Efflux Ratio = (Papp (B−A))/(Papp (A−B)) [formula] %Solution Recovery = (CR × VR + CD × VD)/(C0 × VD) × 100 [formula]
(§4) VR was the volume of solution in the receiver side (0.075 mL for the apical side and 0.25 mL for the basolateral side respectively), VD was the volume of solution in the donor side (0.075 mL for the apical side and 0.25 mL for the basolateral side respectively), CR was the peak area ratio of compound in the receiver side, CD was the peak area ratio of compound in the donor side, C0 was the initial peak area ratio of compound in the donor side, Area was the surface area (0.143 cm^2) of the cell monolayer, and Time was incubation time of 9000 seconds (150 minutes). Papp(B-A) and Papp(A-B) respectively referred to the apparent permeability coefficient from the basolateral side to the apical side and the apparent permeability coefficient from the apical side to the basolateral side.
(§5) The permeability of Lucifer Yellow(%Lucifer Yellow) was calculated by the following formula: %Lucifer Yellow = (VBasolateral × RFUBasolateral)/(VApical × RFUApical + VBasolateral × RFUBasolateral) × 100 [formula]
(§6) RFUApical and RFUBasolareral respectively referred to relative fluorescence intensities of lucifer yellow in the apical side and the basolateral side. VApical and VBasolateral respectively referred to loading volumes (0.075 mL and 0.25 mL respectively) in the apical side and the basolateral side. Table 2 Permeability data of some compounds

MDR1-MDCK II cells = assay: as above; format: in vitro ADME; settings: permeability rank
Procedure: as §1, §2, §3, §4, §5, §6

[4] = Rat pharmacokinetic detection; format: in vivo; settings: plasma, male SD rats; for AUC(0-t): oral gavage 15 mg/kg; for bioavailability: oral gavage 15 mg/kg vs intravenous 10 mg/kg
Procedure: The detection was carried out in 6-8-week-old male SD rats (purchased from:SPF (Beijing) Biotechnology Co., Ltd.). A test compound was dissolved in a solution containing 10% DMSO, 15% Solutol HS and 75% (aqueous solution of 10% hydroxypropyl-β-cyclodextrin), and administered via intravenous injection (10 mg/kg) or oral gavage (15 mg/kg). A concentration of the compound in a plasma sample was analyzed by LC-MS/MS. Pharmacokinetic calculation was carried out by using WinNonlin (Phoenix™, Version 8.3). The following pharmacokinetic parameters were calculated based on plasma concentration and time data: Oral administration: AUClast, bioavailability (F). Statistical calculation was carried out on the above parameter data. Table 4 Pharmacokinetic data of some compounds administered orally in rats

[5] = plasma, oral gavage 10 mg/kg vs intravenous 10 mg/kg
[6] = plasma, ZZL-7 administered at 100 mg/kg via PO

SMILES | half-life at 5 µM [1] | AUC(0-t) ([2]; plasma, oral gavage 10 mg/kg) | bioavailability [2, 5] | further results
COC(=O)[C@@H](NC(=O)[C@@H]1CCN1C(=O)c1ccc(Cl)cc1)C(C)C [A-2-29] | 3.78 h |  |  | 
CC(=O)N1CC[C@@H]1C(=O)N[C@@H](c1ccccn1)C(C)C [B-2-8] | > 4.82 h | 2550 ng·h/mL | 72.5% | 
COC(=O)[C@@H](NC(=O)[C@@H]1CCN1C(=O)c1ccc(C(F)(F)F)cc1)C(C)C [A-2-25] | 3.24 h |  |  | 
COc1ccc(C(NC(=O)[C@H]2CCN2C(C)=O)C(C)C)cc1 (some centres unmarked) [B-2-24] | > 4.82 h |  |  | 
COC(=O)[C@@H](NC(=O)[C@H](C)NC(C)=O)C(C)C [ZZL-7, acetyl-L-alanyl-L-valine methyl ester, reference compound] (Ac-Ala-Val-OMe) | 0.421 h |  |  | AUC(0-t) [2, 6]: 138 ng·h/mL; bioavailability [2, 6]: 7.5%
[2H]C([2H])([2H])C(=O)N1CC[C@H]1C(=O)N[C@H](C(=O)OC)C(C)C [A-2-8] |  | 3310 ng·h/mL | 88.5% | 
COC(=O)[C@@H](NC(=O)[C@@H]1CCN1C(=O)c1ccco1)C(C)C [A-2-31] | > 4.82 h |  |  | 
CC(C)C[C@H](NC(=O)[C@@H]1CCC(=O)N1)C(=O)O [D4-pEL, reference compound] ([pGlu]-Leu-OH) |  | 555 ng·h/mL | 7.7% | Papp A→B at 2.5 h, 2 µM [3]: < 0.216 ×10⁻⁶ cm/s; Papp B→A at 2.5 h, 2 µM [3]: 0.302 ×10⁻⁶ cm/s; Rank Papp (MDR1-MDCK II cells): Low; AUC(0-t) [4]: 98.6 ng·h/mL; bioavailability [4]: 1.04%
COC(=O)[C@@H](NC(=O)[C@H]1CCN1C(C)=O)C(C)C [A-2-7] (Ac-[dAze]-Val-OMe) |  | 3990 ng·h/mL | 83.9% | 
COC(=O)[C@@H](NC(=O)[C@@H]1CCN1C(=O)c1ccccc1)C(C)C [A-2-23] (Bz-[Aze]-Val-OMe) | > 4.82 h |  |  | 
COC(=O)[C@@H](NC(=O)[C@H]1CCN1C(=O)c1ccc(F)cc1)C(C)C [A-2-26] | 3.83 h |  |  | 
COC(=O)[C@@H](NC(=O)C1CCN1C(=O)C1CC1)C(C)C (some centres unmarked) [A-2-2] |  | 405 ng·h/mL | 21.5% | 
COC(=O)[C@@H](NC(=O)[C@@H]1CCN1C(C)=O)C(C)C [A-2-6] (Ac-[Aze]-Val-OMe) |  | 3340 ng·h/mL | 148% | 
CC(=O)N1CCC1C(=O)N[C@H](c1ncc[nH]1)C(C)C (some centres unmarked) [B-2-1] |  | 1660 ng·h/mL | 44.9% | 
[2H]C([2H])([2H])C(=O)N1CC[C@H]1C(=O)N[C@@H](c1ncco1)C(C)C [B-2-42] | > 4.82 h |  |  | 
CC(=O)N1CC[C@@H]1C(=O)NC(c1cc2ccccc2[nH]1)C(C)C (some centres unmarked) [B-2-33] | > 4.82 h | 3360 ng·h/mL | 68.3% | 
[2H]C([2H])([2H])C(=O)N1CC[C@@H]1C(=O)N[C@H](C(=O)OC)C(C)C [A-2-9] |  | 5250 ng·h/mL | 84.7% | 
[2H]C([2H])([2H])C(=O)N1CC[C@H]1C(=O)N[C@H](c1ncco1)C(C)C [B-2-2] |  |  |  | AUC(0-t) ([2]; in vivo, oral gavage 10 mg/kg): 6950 ng·h/mL; bioavailability ([2]; in vivo, oral gavage 10 mg/kg vs intravenous 10 mg/kg): 153%
C[C@H](NC(=O)[C@@H]1CCCN1)C(=O)O [D5-PA, reference compound] (H-Pro-Ala-OH) | 0.877 h | 38 ng·h/mL | 3.8% | Papp A→B at 2.5 h, 2 µM [3]: 0.15 ×10⁻⁶ cm/s; Papp B→A at 2.5 h, 2 µM [3]: 0.3 ×10⁻⁶ cm/s; Rank Papp (MDR1-MDCK II cells): Low; AUC(0-t) [4]: 11.5 ng·h/mL; bioavailability [4]: 0.71%
COC(=O)[C@@H](NC(=O)[C@@H]1CCN1C(=O)C1CC1)C(C)C [A-2-21] | > 4.82 h |  |  | 
COC(=O)[C@@H](NC(=O)[C@H]1CCN1C(=O)c1ccc(C(F)(F)F)cc1)C(C)C [A-2-24] | > 4.82 h |  |  | 
COC(=O)[C@@H](NC(=O)[C@@H]1CCN1C(=O)c1ccc(F)cc1)C(C)C [A-2-27] | 4.75 h |  |  | 
COC(=O)[C@@H](NC(=O)[C@@H]1CCN1C(=O)c1cccs1)C(C)C [A-2-33] | > 4.82 h |  |  | 
COC(=O)[C@@H](NC(=O)[C@H]1CCN1C(=O)c1ccccc1)C(C)C [A-2-22] (Bz-[dAze]-Val-OMe) | > 4.82 h |  |  | 
[2H]C([2H])([2H])OC(=O)[C@@H](NC(=O)C1CCN1C(C)=O)C(C)C (some centres unmarked) [A-2-4] |  | 3770 ng·h/mL | 80.2% | 
CC(C)[N+](C)(CCOC(=O)C1c2ccccc2Oc2ccccc21)C(C)C [Propantheline, reference compound] | 0.417 h |  |  | 
